pIC50: −log10 of the molar value.
Tests used:
[1] = tested on: U-87 (human glioblastoma) cells; assay: Detection of tumors in BALB/c nude mice transplanted with U-87 cells; assay type: in vivo; details: 1 μg intravenous injection, one hour
Procedure: BALB/c nude mice were transplanted with approximately 10^7 U-87 (human glioblastoma) cells and the tumors allowed to develop. 1 μg of an ^18F-labeled FAP-targeted agent of the invention, RTX-1312S (prepared according to Example 13), was administered to the mice by intravenous injection (e.g., tail vein), which were then sacrificed after one hour. FIG. 1a illustrates tumor binding of the ^18F-labeled FAP-targeted compound in mice.

FAP = FAP (Homo sapiens (Human), UniProt Q12884); assay: FAP protease inhibition assay (FAM-labeled substrate peptide, microfluidic electrophoresis); assay type: biochemical; details: enzyme 0.5 nM, substrate peptide 1 uM, 15 minutes pre-incubation, three hours for human FAP
Procedure: Protease reactions were assembled in 384 well plates (Greiner) in a total volume of 20 uL as described below.
Recombinant proteins were pre-diluted in assay buffer comprising of 100 mM HEPES, pH 7.5, 0.1% BSA, 0.01% Triton X-100, 1 mM DTT, and dispensed into 384 well plate (10 uL per well). Test compounds were serially pre-diluted in DMSO and added to the assay wells by acoustic dispensing (Labcyte Echo 550). Control samples (0%-inhibition in the absence of inhibitor, DMSO only) and 100%-inhibition (in the absence of enzyme) were assembled in replicates of four and used to calculate the %-inhibition in the presence of compounds. Concentration of DMSO was equalized to 1% in all samples.
Compounds were pre-incubated with enzymes for 15 minutes. Human FAP was obtained from Enzo, catalogue number BML-SE409-0010. […] Final concentration of enzymes were 0.5 nM. Final concentration of substrate peptides was 1 uM.
The reactions were allowed to proceed at room temperature. Incubation time was three hours for human FAP, 0.5 hours for mouse FAP.
Terminated plates were analyzed using a microfluidic electrophoresis instrument (Caliper LabChip® 3000, Caliper Life Sciences/Perkin Elmer). A change in relative intensity of the peptide substrate and cleaved product was the parameter measured. Activity in each test sample was determined as the product to sum ratio (PSR):P/(S+P), where P is the peak height of the product, and S is the peak height of the substrate. Percent inhibition (Pinh) was determined using the following equation: Pinh=(PSR0% inh−PSRcompound)/(PSR0% inh−PSR100% inh)*100, in which: PSRcompound is the product/sum ratio in the presence of compound, PSR0% inh is the product/sum ratio in the absence of compound and the PSR100% inh is the product/sum ratio in the absence of the enzyme.

FAP, sequence (Q12884 whole entry): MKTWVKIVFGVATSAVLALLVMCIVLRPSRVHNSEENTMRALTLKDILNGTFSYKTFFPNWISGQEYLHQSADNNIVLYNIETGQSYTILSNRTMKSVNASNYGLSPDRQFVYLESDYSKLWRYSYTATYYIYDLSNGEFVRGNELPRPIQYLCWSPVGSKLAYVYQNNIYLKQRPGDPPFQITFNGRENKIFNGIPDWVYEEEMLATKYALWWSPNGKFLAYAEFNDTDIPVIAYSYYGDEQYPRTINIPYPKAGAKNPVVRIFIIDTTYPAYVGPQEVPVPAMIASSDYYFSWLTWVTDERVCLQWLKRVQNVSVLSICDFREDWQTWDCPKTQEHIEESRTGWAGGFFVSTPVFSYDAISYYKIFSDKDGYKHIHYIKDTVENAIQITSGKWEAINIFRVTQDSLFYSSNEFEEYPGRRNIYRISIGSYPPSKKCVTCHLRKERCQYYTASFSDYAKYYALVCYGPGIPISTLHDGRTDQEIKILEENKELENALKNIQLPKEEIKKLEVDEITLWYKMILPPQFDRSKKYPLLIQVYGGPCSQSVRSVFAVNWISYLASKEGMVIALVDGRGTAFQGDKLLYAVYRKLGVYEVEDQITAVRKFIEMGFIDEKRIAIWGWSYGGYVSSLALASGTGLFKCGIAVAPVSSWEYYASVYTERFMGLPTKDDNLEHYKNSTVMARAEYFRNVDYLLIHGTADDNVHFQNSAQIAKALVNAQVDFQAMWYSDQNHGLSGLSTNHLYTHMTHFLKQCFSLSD

CC(=O)NCCCC[C@H](NC(=O)[C@H](CCCCNC(=S)Nc1ccc(CC2CN(CC(=O)O)CCN(CC(=O)O)CCN2CC(=O)O)cc1)NC(=O)CCOCCOCCOCCNC(=O)COc1ccc2c(C(=O)NCC(=O)N3CCC[C@H]3C#N)ccnc2c1)C(=O)O (stereo partly drawn) [RTX-1312S, (S)-2-[(S)-2-(3-{2-[2-(2-{2-[4-({2-[(S)-2-Cyano-1-pyrrolidinyl]-2-oxoethylamino}carbonyl)-7-quinolyloxy]acetylamino}ethoxy)ethoxy]ethoxy}propionylamino)-6-[3-(p-{[1,4,7-tris(carboxymethyl)-1,4,7-triazonan-2-yl]methyl}phenyl)thioureido]hexanoylamino]-6-acetylaminohexanoic Acid]
tumor binding of 18F-labeled compound [1]: tumor binding | pIC50 (FAP): > 10.00

Reference: patent US20260034252A1, “FIBROBLAST ACTIVATION PROTEIN-TARGETED COMPOSITIONS AND METHODS OF USE THEREOF” (Ratio Therapeutics, Inc., priority 2022, published 2026)
